Data: PubChem BioAssay AID248 (DTP/NCI, 2004)
Toxic doses and inconclusive results are not listed. Rule as the data show it: active = T/C of 150% or more; inactive = T/C below 125%.

System: L1210 leukemia ip in BDF1 mice, survival T/C
Assay: NCI In Vivo Anticancer Drug Screen. Data for tumor model L1210 Leukemia (intraperitoneal) in B6D2F1 (BDF1) mice
Settings: endpoint: mean survival time, higher = longer survival
In short: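 Antitumor effect is assessed in tumor-bearing animals. Survival in the compound arm is compared with a vehicle-dosed control arm and expressed as their quotient.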

[1] = dose: 100.0 mg/kg/injection, schedule: Q04DX003 (ip), vehicle: saline with Tween-80
[2] = dose: 200.0 mg/kg/injection, schedule: Q04DX003 (ip), vehicle: saline with Tween-80
[3] = dose: 400.0 mg/kg/injection, schedule: Q04DX003 (ip), vehicle: saline with Tween-80

Measured: T/C

COc1cc(OC)c(Oc2cc(OC)c(OC)c(OC)c2)c(OC)c1
inactive: [1] 97 % of control | [2] 103 % of control | [3] 101 % of control

COc1cc(C=O)cc(C=O)c1O
inactive: dose: 25.0 mg/kg/injection, schedule: Q01DX001 (ip), vehicle: saline with Tween-80 96 % of control | dose: 50.0 mg/kg/injection, schedule: Q01DX001 (ip), vehicle: saline with Tween-80 104 % of control | dose: 100.0 mg/kg/injection, schedule: Q01DX001 (ip), vehicle: saline with Tween-80 90 % of control

COc1ccc(NC(=O)Nc2ccc(S(N)(=O)=O)cc2)c(OC)c1
inactive: dose: 100.0 mg/kg/injection, schedule: Q01DX009 (ip), vehicle: Klucel (hydroxypropylcellulose) (HPC) 96 % of control | dose: 200.0 mg/kg/injection, schedule: Q01DX009 (ip), vehicle: Klucel (hydroxypropylcellulose) (HPC) 94 % of control | dose: 400.0 mg/kg/injection, schedule: Q01DX009 (ip), vehicle: Klucel (hydroxypropylcellulose) (HPC) 88 % of control

O=NN(CC(Cl)CN(N=O)C(=O)NC1CCCCC1)C(=O)NC1CCCCC1
inactive: dose: 8.0 mg/kg/injection, schedule: Q01DX001 (ip), vehicle: other 97 % of control | dose: 16.0 mg/kg/injection, schedule: Q01DX001 (ip), vehicle: other 108 % of control | dose: 31.0 mg/kg/injection, schedule: Q01DX001 (ip), vehicle: other 90 % of control | dose: 62.0 mg/kg/injection, schedule: Q01DX001 (ip), vehicle: other 100 % of control | dose: 125.0 mg/kg/injection, schedule: Q01DX001 (ip), vehicle: other 95 % of control | dose: 250.0 mg/kg/injection, schedule: Q01DX001 (ip), vehicle: other 92 % of control | dose: 500.0 mg/kg/injection, schedule: Q01DX001 (ip), vehicle: other 97 % of control | dose: 750.0 mg/kg/injection, schedule: Q01DX001 (ip), vehicle: other 102 % of control | dose: 1000.0 mg/kg/injection, schedule: Q01DX001 (ip), vehicle: other 102 % of control

CCN(CC)Cc1cc(Nc2cc(C)nc3ccc(N(C)C)cc23)ccc1O
inactive: dose: 12.5 mg/kg/injection, schedule: Q01DX009 (ip), vehicle: saline 104 % of control | dose: 25.0 mg/kg/injection, schedule: Q01DX009 (ip), vehicle: saline 98 % of control | dose: 50.0 mg/kg/injection, schedule: Q01DX009 (ip), vehicle: saline 100 % of control

O=C(O)/C(=N\Nc1ccccc1)c1ccccc1
inactive: dose: 50.0 mg/kg/injection, schedule: Q01DX001 (ip), vehicle: saline 107 % of control | dose: 100.0 mg/kg/injection, schedule: Q01DX001 (ip), vehicle: saline 96 % of control | dose: 200.0 mg/kg/injection, schedule: Q01DX001 (ip), vehicle: saline 110 % of control | dose: 400.0 mg/kg/injection, schedule: Q01DX001 (ip), vehicle: saline 90 % of control

CCCCCCCCCCCCCCCCS(=O)(=O)Nc1cc(C(=O)NN)cc(C(=O)NN)c1
inactive: [1] 90 % of control | [2] 86 % of control | [3] 88 % of control

COc1ccc2c(c1)CC/C(=C\c1ccc(OCCN3CCCC3)cc1)C2=O
inactive: dose: 12.5 mg/kg/injection, schedule: Q04DX003 (ip), vehicle: saline with Tween-80 105 % of control | dose: 25.0 mg/kg/injection, schedule: Q04DX003 (ip), vehicle: saline with Tween-80 107 % of control | dose: 50.0 mg/kg/injection, schedule: Q04DX003 (ip), vehicle: saline with Tween-80 100 % of control | [1] 111 % of control

COc1ccc(/C=C2\N=C(c3cccc([N+](=O)[O-])c3)OC2=O)cc1OC
inactive: dose: 100.0 mg/kg/injection, schedule: Q04DX002 (ip), vehicle: Klucel (hydroxypropylcellulose) (HPC) 89 % of control | dose: 200.0 mg/kg/injection, schedule: Q04DX002 (ip), vehicle: Klucel (hydroxypropylcellulose) (HPC) 110 % of control | dose: 400.0 mg/kg/injection, schedule: Q04DX002 (ip), vehicle: Klucel (hydroxypropylcellulose) (HPC) 100 % of control
